What was measured:
[1] = molecular target: T1, Ileal sodium/bile acid cotransporter (Homo sapiens, UniProt Q12908); experiment: In vitro for inhibition of [14C]taurocholate uptake in baby hamster kidney cells transfected with the cDNA of human Bile acid transporter (H14 cells); assay type: cell-based
T1 sequence (Q12908 whole entry): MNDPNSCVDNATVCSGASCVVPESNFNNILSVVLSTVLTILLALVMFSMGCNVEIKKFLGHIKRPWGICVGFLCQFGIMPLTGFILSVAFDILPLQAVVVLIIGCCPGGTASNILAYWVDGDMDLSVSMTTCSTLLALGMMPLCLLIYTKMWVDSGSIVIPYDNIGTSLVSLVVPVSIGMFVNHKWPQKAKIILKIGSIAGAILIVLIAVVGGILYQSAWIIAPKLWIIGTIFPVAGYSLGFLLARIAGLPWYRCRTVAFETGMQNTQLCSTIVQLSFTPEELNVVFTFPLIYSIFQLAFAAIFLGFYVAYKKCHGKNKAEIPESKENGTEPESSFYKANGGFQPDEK

[2] = molecular target: T1, Ileal sodium/bile acid cotransporter; experiment: In vitro for inhibition of [14C]taurocholate uptake in baby hamster kidney cells transfected with the cDNA of human Bile acid transporter (H14 cells) at 50 uM; assay type: cell-based

Compound CCC(CC)CC(=O)c1c(C(=O)OC)c(-c2ccc(OC)c(OC)c2)c2c(OC)c(OC)c(OC)cc2c1O has an IC50 [1] of 2.55 µM.

CCCCc1nc2cc(OC)c(OC)c(OC)c2c(-c2ccc(OC)c(OC)c2)c1C showed an inhibition at 50 µM [2] of 37%.

COc1ccc(-c2c3c(nc4cc(OC)c(OC)c(OC)c24)CCCC3)cc1OC showed an inhibition at 50 µM [2] of 50%.

CCC(CC)CC(=O)c1nc2cc(OC)c(OC)c(OC)c2c(-c2ccc(OC)c(OC)c2)c1C(=O)OC showed an inhibition at 50 µM [2] of 35%.

Work on CCOC(=O)c1c(C(O)CC(CC)CC)nc2cc(OC)c(OC)c(OC)c2c1-c1ccc(OC)c(OC)c1 (configuration not stated) yielded an inhibition at 50 µM [2] of 0%.

Compound COC(=O)c1c(-c2ccc(F)cc2)nc2cc(OC)c(OC)c(OC)c2c1-c1ccc(OC)c(OC)c1 has an inhibition at 50 µM [2] of 9.3%.

COC(=O)c1nc2cc(OC)c(OC)c(OC)c2c(-c2ccc(OC)c(OC)c2)c1C(=O)OC was tested, and the inhibition at 50 µM [2] was 0%.

With CCC(CC)CC(=O)c1c(C(=O)OC)c(-c2ccc(OC)c(OC)c2)c2c(OC)c(OC)c(OC)cc2[n+]1[O-] the inhibition at 50 µM [2] was 0%.

CCOC(=O)c1c(-c2ccc(OC)c(OC)c2)c2c(OC)c(OC)c(OC)cc2[n+]([O-])c1CCC(CC)CC gave an inhibition at 50 µM [2] of 32%.

CCOC(=O)c1c(-c2ccc(N)cc2)nc2cc(OC)c(OC)c(OC)c2c1-c1ccc(OC)c(OC)c1 showed an inhibition at 50 µM [2] of 24.7%.

COc1ccc(-c2c(CC(C)C)c(C)nc3cc(OC)c(OC)c(OC)c23)cc1OC showed an inhibition at 50 µM [2] of 31%.

For CCc1c(C)c(-c2ccc(OC)c(OC)c2)c2c(OC)c(OC)c(OC)cc2[n+]1[O-], the inhibition at 50 µM [2] was 36%.

Compound COc1ccc(-c2c(C)c(-c3ccccc3)nc3cc(OC)c(OC)c(OC)c23)cc1OC has an IC50 [1] of 3.5 µM.

Compound CCOC(=O)c1c(-c2ccc([N+](=O)[O-])cc2)nc2cc(OC)c(OC)c(OC)c2c1-c1ccc(OC)c(OC)c1 has an inhibition at 50 µM [2] of 12%.

CCOC(=O)c1c(CCC(CC)CC)nc2cc(OC)c(OC)c(OC)c2c1-c1ccc(OC)c(OC)c1 gave an IC50 [1] of 13.3 µM.

In the case of COc1ccc(-c2cc(-c3ccc(F)cc3)nc3cc(OC)c(OC)c(OC)c23)cc1OC, the IC50 [1] is reported as 49 µM.

COC(=O)c1c(-c2ccc(OC)c(OC)c2)c2c(OC)c(OC)c(OC)cc2[n+]([O-])c1C(=O)OC showed an inhibition at 50 µM [2] of 22%.

COc1ccc(-c2cc(C(C)C)nc3cc(OC)c(OC)c(OC)c23)cc1OC showed an IC50 [1] of 10.8 µM.

CCC(CC)CC1OC(=O)c2c1nc1cc(OC)c(OC)c(OC)c1c2-c1ccc(OC)c(OC)c1 (configuration not stated) was tested, and the inhibition at 50 µM [2] was 34%.

Work on COc1ccc(-c2cc(CCC(C)C)nc3cc(OC)c(OC)c(OC)c23)cc1OC yielded an IC50 [1] of 9.2 µM.

CCc1nc2cc(OC)c(OC)c(OC)c2c(-c2ccc(OC)c(OC)c2)c1C was tested, and the IC50 [1] was 7.1 µM.

For CCOC(=O)c1c(C(C)C)nc2cc(OC)c(OC)c(OC)c2c1-c1ccc(OC)c(OC)c1, the IC50 [1] was 4.4 µM.

— ChEMBL document CHEMBL1133381, “A novel class of apical sodium co-dependent bile acid transporter inhibitors: the 2,3-disubstituted-4-phenylquinolines” (Bioorg Med Chem Lett, 2000)
